In patent US20070134753A1, “Assay for determining the activity of fatty acid amide hydrolase” (priority 2002, published 2007):
“And” between values parts separate entries of the source, which are not always exact repeats. Equal values may be shown once. Read-outs that look alike come from different tables or passages of the source. Blank lines part the entries; values can stand above or below the compound they belong to.

Columns and labels:
[1] = target: T1, human FAAH (Homo sapiens, UniProt O00519); test: FAAH charcoal filter-plate assay with 3H-anandamide in T84 membranes; assay type: biochemical; settings: for IC50 values (in words): product inhibition
T1 construct: T84 frozen pellets were homogenized in FAAH assay buffer; endogenous in cells; host or cells: T84 human colorectal carcinoma cells (ATCC CCL-248), homogenate/membranes
T1 sequence (O00519 1-579): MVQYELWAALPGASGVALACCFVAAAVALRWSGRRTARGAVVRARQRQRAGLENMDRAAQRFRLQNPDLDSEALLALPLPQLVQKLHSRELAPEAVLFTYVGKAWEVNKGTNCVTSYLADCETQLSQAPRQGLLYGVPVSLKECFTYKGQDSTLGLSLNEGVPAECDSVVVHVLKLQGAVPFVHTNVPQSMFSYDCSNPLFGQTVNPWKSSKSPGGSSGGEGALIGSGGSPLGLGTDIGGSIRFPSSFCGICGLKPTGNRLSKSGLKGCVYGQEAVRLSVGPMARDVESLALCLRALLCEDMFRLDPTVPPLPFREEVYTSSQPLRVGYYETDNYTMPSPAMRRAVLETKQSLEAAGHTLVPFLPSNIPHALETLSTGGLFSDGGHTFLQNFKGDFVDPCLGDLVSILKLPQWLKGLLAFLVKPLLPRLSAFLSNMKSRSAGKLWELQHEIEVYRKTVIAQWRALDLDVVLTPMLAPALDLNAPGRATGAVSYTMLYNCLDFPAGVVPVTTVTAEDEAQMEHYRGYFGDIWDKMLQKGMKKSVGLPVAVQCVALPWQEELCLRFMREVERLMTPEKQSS

[2] = target: T2, FAAH (Rattus norvegicus, UniProt P97612); design: other: literature data; settings: read-out: Literature (ref) IC50; cited from earlier work
T2 sequence (P97612 1-579): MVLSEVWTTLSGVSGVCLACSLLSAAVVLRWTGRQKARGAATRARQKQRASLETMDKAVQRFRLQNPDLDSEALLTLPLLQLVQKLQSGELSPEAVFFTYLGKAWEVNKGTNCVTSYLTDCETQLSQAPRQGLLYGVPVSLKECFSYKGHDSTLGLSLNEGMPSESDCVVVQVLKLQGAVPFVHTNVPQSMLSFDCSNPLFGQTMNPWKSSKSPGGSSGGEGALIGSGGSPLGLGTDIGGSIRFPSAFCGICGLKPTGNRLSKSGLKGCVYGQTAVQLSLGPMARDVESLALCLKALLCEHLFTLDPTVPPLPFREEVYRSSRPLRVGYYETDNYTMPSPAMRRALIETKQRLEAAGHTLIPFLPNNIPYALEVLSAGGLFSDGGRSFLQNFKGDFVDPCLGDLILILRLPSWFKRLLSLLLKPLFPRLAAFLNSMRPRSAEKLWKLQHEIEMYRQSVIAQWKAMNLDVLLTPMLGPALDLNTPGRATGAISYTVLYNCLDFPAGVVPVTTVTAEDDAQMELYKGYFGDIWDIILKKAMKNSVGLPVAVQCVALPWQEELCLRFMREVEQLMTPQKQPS

[3] = target: T2, FAAH; settings: cited from earlier work
[4] = target: T3, FAAH (Mus musculus, UniProt O08914); settings: cited from earlier work
T3 construct: it abolished anandamide hydrolysis in N18 mouse neuroblastoma cells; host or cells: N18 mouse neuroblastoma cells
T3 sequence (O08914 1-579): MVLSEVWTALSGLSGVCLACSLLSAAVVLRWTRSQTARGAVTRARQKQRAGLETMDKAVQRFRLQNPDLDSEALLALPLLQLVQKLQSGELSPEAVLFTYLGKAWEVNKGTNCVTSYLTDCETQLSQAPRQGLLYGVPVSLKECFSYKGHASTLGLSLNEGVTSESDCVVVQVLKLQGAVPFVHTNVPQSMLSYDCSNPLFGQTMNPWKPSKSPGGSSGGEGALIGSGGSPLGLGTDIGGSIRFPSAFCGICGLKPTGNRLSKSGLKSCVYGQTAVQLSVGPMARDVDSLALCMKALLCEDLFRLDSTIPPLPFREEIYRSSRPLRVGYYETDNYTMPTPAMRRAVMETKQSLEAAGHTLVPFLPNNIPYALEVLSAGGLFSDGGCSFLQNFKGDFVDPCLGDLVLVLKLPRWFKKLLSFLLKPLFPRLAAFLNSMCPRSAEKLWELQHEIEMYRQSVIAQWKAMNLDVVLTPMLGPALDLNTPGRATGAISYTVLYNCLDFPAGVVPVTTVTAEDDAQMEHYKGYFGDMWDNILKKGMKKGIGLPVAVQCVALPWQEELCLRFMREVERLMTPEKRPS

[5] = target: FAAH (Homo sapiens, UniProt O00519); settings: human brain; Maccarrone et al. 1999; cited from earlier work
[6] = T84 membranes, room temperature 60 min, average ± S.E. of 2-5 experiments, each in triplicate, read-out: IC50

IC50 values (in words) ([1]; T84 membranes): low micromolar range | IC50 [1, 6]: 0.931 ± 0.255 µM
SMILES: CCCCC/C=C\C/C=C\C/C=C\C/C=C\CCCC(=O)O [Arachidonic acid]

IC50 values (in words) ([1]; T84 membranes): low micromolar range | IC50 [1, 6]: 1.94 ± 0.401 µM
SMILES: CCCCCCCC/C=C\CCCCCCCC(=O)O [Oleic acid]

SMILES: CCCCCCCC/C=C\CCCCCCCCC(=O)C(F)(F)F [Oleyl trifluoromethyl ketone, oleyl trifluoromethyl ketone]
IC50 [2]: 0.039 µM and 0.024 to 0.041 µM

SMILES: O=S(=O)(F)Cc1ccccc1 [Phenylmethylsulfonyl fluoride]
IC50 ([1]; IC50): 16 µM | inhibition of the hydrolysis of rat brain microsomal anandamide ([3]; at 25 μM, Desarnaud et al. 1995): 48% | anandamide hydrolysis in N18 mouse neuroblastoma cells ([4]; at a concentration of 100 μM, Maurelli et al. 1995): abolished | IC50 [2]: 1.2 to 69 µM

SMILES: CCCCC/C=C\C/C=C\C/C=C\C/C=C\CCCC(=O)NCCO [anandamide, N-arachidonoylethanolamine]
Km [5]: 2 µM | Km ([1]; read-out: Km of hydrolysis by FAAH): 1.1 ± 0.17 µM | Km [3]: 12.7 µM | Km [4]: 9 µM | activity of FAAH [4]: abolished
